Values quoted from earlier work in patent US6277391A, “Composition and method of treating diseases and disorders of the prostate” (Samyang Corporation, priority 1998, dated 2001).

Details: 300 mg PO b.i.d., oral or intravenous, at the end of regimen; 60480 min

CC1COc2c(N3CCN(C)CC3)c(F)cc3c(=O)c(C(=O)O)cn1c23 (stereo not shown) [ofloxacin]
ofloxacin concentrations in the prostate: 1 to 4 µg/g
